Laboratory results: patent US20240300943A1, “NOVEL SALTS OF HETEROCYCLIC COMPOUND AS PROTEIN KINASE INHIBITOR AND USES THEREOF” (HK INNO.N CORPORATION, priority 2021, published 2024)

Assays:
JAK2 [1] = assay: Human whole blood assay, JAK2; type: cell-based; conditions: cytokine-induced STAT phosphorylation
Experimental: (§1) A stock solution of Compound 1 obtained according to Preparation Example 1 was diluted with distilled water and then serially diluted at ⅕ with 4% DMSO. 5 μL of test material was added to 100 μL of whole blood collected using a 1.7 mL eppendorf tube, mixed, and incubated at 37° C. for 45 minutes.
(§2) IL-6 (10 μg/ml) was diluted with 0.1% BSA/DW to reach 1 μg/mL each. 5 μL of IL-6 was added (at a final concentration of 50 ng/mL) and incubated at 37° C. for 15 minutes. At this time, 5 μL of DPBS was added as a non-stimulated control group. Lyse/fix buffer 5× was diluted 1× in distilled water and used. […]
(§3) For double staining of CD4 and pSTATI, anti-[…] and anti-pSTATI were mixed in a staining buffer and added to each of the samples. […] On the next day, the results were analyzed using FACSCanto II. […]
(§4) The numerical values analyzed by FlowJo were calculated to obtain IC50 values using GraphPad Prism 5 software (product name).
(§5) No treatment response (NTR) was set as a reference, and the degree of the phosphorylation of STAT induced by cytokines was converted into a relative ratio (% control group). A dose-response plot was obtained for each concentration-dependent activity of each test material using GraphPad Prism (version 5.0) and ICso values were calculated.

RBL-2H3 cells = assay: IL-4 secretion inhibitory activity in Basophil cells; type: cell-based; conditions: FIG. 8
Experimental: RBL-2H3 cells were diluted in 10% FBS EMEM medium and divided in a 24-well plate to reach 1×10^5 cells/well. The cells were incubated in a 37° C. incubator for 18 hours or longer.
The test material (Compound 1) was treated at each concentration (at a final concentration of 0, 0.1, 0.5 and 1 μM) under PMA (50 nmol/L) and A23187 (1 μmol/L) stimulation. The cells were incubated in a 37° C. incubator for 24 hours. Then, the reaction was terminated on ice, after the degree of IL-4 secretion in the culture supernatant was measured by IL-4 ELISA kit.

JAK2 [2] = target: JAK2 (Homo sapiens, UniProt O60674); assay: ADP-Glo JAK2 kinase assay; type: biochemical; conditions: read-out: IC50, In vitro enzyme JAK2
Experimental: 10 mM of Compound 1 was diluted in DMSO to prepare samples at four concentrations (5,000 nM, 500 nM, 50 nM and 5 nM). 10 mM of ATP was diluted at 1/40 in 1× kinase buffer to make a preparation. 1 mg/mL of IGFIRtide was used as a stock solution. 100 ng/μL of JAK2 enzyme was diluted at 1/20 in 1× kinase buffer to make a preparation. 1 μL of ATP, 1 μL of IGFIRtide, and 1 μL of Compound 1 prepared as above were mixed, after which 2 μL of JAK2 enzyme was finally added and reacted at 30° C. for 40 minutes. At this time, a tube without JAK2 enzyme was prepared as a blank and a tube without Compound 1 was prepared as a positive control group together (a final concentration of samples was 1,000 nM, 100 nM, 10 nM, and 1 nM).
Then, 5 μL of ADP-glo was added to each tube and reacted at 30° C. for 40 minutes, after which 10 μL of kinase detection reagent was added thereto and reacted at room temperature for 15 minutes. After 18 μL of the reactant was transferred to a 384 well plate, luminescence was measured using a plate reader.

JAK1 = assay: Human whole blood assay, JAK1; type: cell-based; conditions: cytokine-induced STAT phosphorylation
Experimental: as §1, §2, §3, §4, §5

[3] = Photostability evaluation; type: physicochemical
From the text: Samples were packaged in LPDE bag, and stored under visible (1.2M Lux-h), UV (200 W-h/m2) and UV+visible conditions, respectively, and then evaluated.

[4] = Physical stability evaluation under stress conditions; type: physicochemical
Experimental: In order to evaluate physical stability, samples were packaged in the form of ((LPDE+N2)+silica gel 1 g+LDPE)+Al-Bag, and stored under stress conditions (60° C.±2° C./80% RH±5%) for 2/4 weeks before evaluation.
In table 2, initial is a result measured after preparation of salts, and S2W and S4W are results measured after two and four weeks while being exposed to stress conditions, respectively.

JAK2 (Homo sapiens, UniProt O60674), sequence (O60674 whole entry, species assumed): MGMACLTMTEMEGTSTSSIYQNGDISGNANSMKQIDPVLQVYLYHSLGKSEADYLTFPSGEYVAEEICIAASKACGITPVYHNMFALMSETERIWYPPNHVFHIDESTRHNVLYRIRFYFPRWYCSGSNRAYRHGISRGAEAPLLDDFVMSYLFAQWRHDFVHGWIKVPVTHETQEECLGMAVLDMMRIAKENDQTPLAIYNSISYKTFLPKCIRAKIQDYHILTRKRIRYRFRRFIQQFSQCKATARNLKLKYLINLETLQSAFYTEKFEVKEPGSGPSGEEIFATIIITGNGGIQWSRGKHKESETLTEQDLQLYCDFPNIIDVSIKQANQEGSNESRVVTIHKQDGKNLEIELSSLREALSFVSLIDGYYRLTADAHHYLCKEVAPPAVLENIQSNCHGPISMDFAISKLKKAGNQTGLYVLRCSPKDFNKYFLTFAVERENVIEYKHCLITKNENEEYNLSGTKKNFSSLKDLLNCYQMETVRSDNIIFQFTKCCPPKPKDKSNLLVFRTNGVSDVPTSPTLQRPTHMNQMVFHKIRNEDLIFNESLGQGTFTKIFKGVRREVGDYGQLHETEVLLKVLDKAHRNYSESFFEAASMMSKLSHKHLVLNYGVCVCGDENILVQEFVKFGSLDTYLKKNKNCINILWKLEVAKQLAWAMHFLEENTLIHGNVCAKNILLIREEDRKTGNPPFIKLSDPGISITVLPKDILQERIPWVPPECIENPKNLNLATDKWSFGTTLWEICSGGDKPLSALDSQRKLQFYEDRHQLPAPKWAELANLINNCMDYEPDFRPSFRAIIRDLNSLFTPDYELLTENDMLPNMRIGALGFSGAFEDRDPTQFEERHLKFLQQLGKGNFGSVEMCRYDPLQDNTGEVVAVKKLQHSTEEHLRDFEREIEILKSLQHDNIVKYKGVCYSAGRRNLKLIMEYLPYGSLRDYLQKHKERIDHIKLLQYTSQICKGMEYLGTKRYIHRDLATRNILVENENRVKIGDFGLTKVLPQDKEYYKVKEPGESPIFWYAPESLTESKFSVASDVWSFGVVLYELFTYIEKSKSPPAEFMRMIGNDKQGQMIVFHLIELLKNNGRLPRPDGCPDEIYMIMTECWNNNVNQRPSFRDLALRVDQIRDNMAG

In the case of `C[C@@H]1CN(C(=O)CC#N)CC=C1c1cc(NC(=O)C2CC2)nc2[nH]ccc12` [Compound 1, (S)—N-(4-(1-(2-cyanoacetyl)-3-methyl-1,2,3,6-tetrahydropyridin-4-yl)-1H-pyrrolo[2,3-b]pyridin-6-yl)cyclopropanecarboxamide], the IC50 (JAK2 [1]) is reported as 774 nM, the “IL-4 concentration compared to the negative control group (vehicle)” value (RBL-2H3 cells; 0.5 μM and 1 μM) is reported as “remarkably reduced to almost ½ or more” and the IL-4 secretion (RBL-2H3 cells; RBL-2H3 cells, PMA and A23187 stimulation, 24 hours) is reported as “inhibits IL-4 secretion”. For the same compound, the IC50 (JAK2 [2]) was 68 nM and the IC50 (JAK1) was 70 nM.
For `C[C@@H]1CN(C(=O)CC#N)CC=C1c1cc(NC(=O)C2CC2)nc2[nH]ccc12` [Example 3, (S)—N-(4-(1-(2-cyanoacetyl)-3-methyl-1,2,3,6-tetrahydropyridin-4-yl)-1H-pyrrolo[2,3-b]pyridin-6-yl)cyclopropanecarboxamide], the Individual related material ([3]; Initial) was 0.08%, the Total related material ([3]; Initial) was 0.45% and the Individual related material ([3]; Solid, Control) was 0.07%. For the same compound, the Total related material ([3]; Solid, Control) was 0.37%, the Individual related material ([3]; Solid, UV (200 W-h/m2)) was 0.1% and the Total related material ([3]; Solid, UV (200 W-h/m2)) was 0.42%. It also gave an Individual related material ([3]; Solid, UV + Vis) of 0.08%, a Total related material ([3]; Solid, UV + Vis) of 0.5% and an Individual related material ([3]; Solid, UV + Vis Control) of 0.08%. For the same compound, the Total related material ([3]; Solid, UV + Vis Control) was 0.48%, the Individual related material ([3]; Solid, Vis (1.2M Lux-h)) was 0.07% and the Total related material ([3]; Solid, Vis (1.2M Lux-h)) was 0.41%. The C.I quantitative ([4]; Initial) was 24.0%, the “Content (anhydride, as anhydride)” value ([4]; Initial) was 98.9% and the Moisture ([4]; Initial) was 0.2%. The “Purity: Individual related material” value ([4]; Initial) was 0.08%, the “Purity: Total related material” value ([4]; Initial) was 0.41% and the C.I quantitative ([4]; S2W: 2 weeks at 60° C./80% RH) was 24.1%. For the same compound, the “Content (anhydride, as anhydride)” value ([4]; S2W: 2 weeks at 60° C./80% RH) was 99.9%, the Moisture ([4]; S2W: 2 weeks at 60° C./80% RH) was 0.2% and the “Purity: Individual related material” value ([4]; S2W: 2 weeks at 60° C./80% RH) was 0.08%. The “Purity: Total related material” value ([4]; S2W: 2 weeks at 60° C./80% RH) was 0.43%, the C.I quantitative ([4]; S4W: 4 weeks at 60° C./80% RH) was 23.8% and the “Content (anhydride, as anhydride)” value ([4]; S4W: 4 weeks at 60° C./80% RH) was 99.9%. The Moisture ([4]; S4W: 4 weeks at 60° C./80% RH) was 0.2%, the “Purity: Individual related material” value ([4]; S4W: 4 weeks at 60° C./80% RH) was 0.11% and the “Purity: Total related material” value ([4]; S4W: 4 weeks at 60° C./80% RH) was 0.53%.
